Experimental findings from PubChem BioAssay (NCI) are described below.

Values joined by “and” are separate entries in the source; they are usually repeats but may differ in a detail not shown here. Equal values may be shown once.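 Exposure lasted 48 hours, with cells grown in 96-well plates and compounds tested at five concentrations. Abbreviation: GI50, concentration required for 50% inhibition of growth. TGI denotes the concentration required for complete inhibition of growth.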

Test systems include HL-60(TB) leukemia; A549 NSCLC; SW-620 colon; LOX IMVI melanoma; DU-145 prostate; MDA-MB-435; HOP-62 NSCLC; ACHN renal; CCRF-CEM leukemia; MDA-MB-231 breast.
What all share (assay): NCI anticancer screen, dose series, 48 h

In the case of `CCN(CC)C(=S)SSC(=S)N(CC)CC`, the GI50 was 25.9 µM and 22.4 µM with HL-60(TB) leukemia; 25 µM and 33 µM with A549 NSCLC; 16.1 µM and 17 µM in the test on SW-620 colon; 14.4 µM and 12.8 µM in the test with LOX IMVI melanoma; 24.5 µM and 31.7 µM with DU-145 prostate; 15.6 µM and 18.7 µM in the test with MDA-MB-435. For the same molecule, the GI50 in the test with HOP-62 NSCLC was 33.9 µM and 33.7 µM; with ACHN renal it was 19 µM and 18 µM; in the test on CCRF-CEM leukemia, 10.3 µM; with MDA-MB-231 breast it was 16.1 µM and 16.7 µM. Besides, the TGI with HL-60(TB) leukemia was 56.3 µM and 52.5 µM; in the test with A549 NSCLC, > 71.9 µM and 146 µM; in the test on SW-620 colon, 30.4 µM and 32.6 µM; in the test on LOX IMVI melanoma, 31.2 µM and 29.9 µM; in the test with DU-145 prostate, > 59.8 µM and 133 µM; in the test with MDA-MB-435, 43.5 µM and 53.3 µM. Moreover, the TGI with HOP-62 NSCLC is > 67.9 µM and 112 µM; in the test with ACHN renal it was 36.9 µM and 34.4 µM; in the test on CCRF-CEM leukemia, 27.6 µM; in the test on MDA-MB-231 breast, 32.5 µM and 34.3 µM.

In the case of `C=C1CC[C@@H]2[C@](C)(COC(C)=O)[C@H](OC(C)=O)CC[C@@]2(C)[C@@H]1CC(Nc1ccc(S(=O)(=O)Nc2nccs2)cc1)C1=CCOC1=O` (some centres undefined), the GI50 in the test with HL-60(TB) leukemia was 3.01 µM; with A549 NSCLC it was 3.67 µM; in the test on SW-620 colon it was 1.85 µM; with LOX IMVI melanoma it was 1.59 µM; in the test on DU-145 prostate, 4.47 µM; with MDA-MB-435, 3.29 µM. Also, the GI50 was 13.8 µM in the test with HOP-62 NSCLC, 5.99 µM in the test on ACHN renal, 2.28 µM in the test with CCRF-CEM leukemia and 3.31 µM in the test with MDA-MB-231 breast. Moreover, the TGI in the test on HL-60(TB) leukemia was found to be 13.3 µM; in the test on A549 NSCLC it was 11.2 µM; in the test on SW-620 colon, 3.98 µM; in the test on LOX IMVI melanoma, 3.31 µM; in the test with DU-145 prostate, 15.8 µM; in the test on MDA-MB-435 it was 12.7 µM. The TGI was determined as 27.5 µM in the test with HOP-62 NSCLC, 18.9 µM in the test on ACHN renal, 6.76 µM in the test on CCRF-CEM leukemia and 8.25 µM with MDA-MB-231 breast.

For the molecule `CCN(C(=O)CN1CCN(c2cc3c(cc2F)c(=O)c(C(=O)O)cn3CC)CC1)c1nc(-c2ccccc2)cs1`, the GI50 was 0.199 µM with HL-60(TB) leukemia; 0.365 µM in the test with A549 NSCLC; 0.412 µM in the test on SW-620 colon; 0.325 µM in the test with LOX IMVI melanoma; 0.453 µM in the test with DU-145 prostate; 0.306 µM in the test on MDA-MB-435. The GI50 is 0.345 µM in the test with HOP-62 NSCLC, 0.33 µM in the test with ACHN renal, 0.427 µM in the test on CCRF-CEM leukemia and 0.442 µM in the test on MDA-MB-231 breast. The TGI in the test with HL-60(TB) leukemia was 0.47 µM; with A549 NSCLC, > 100 µM; with SW-620 colon, > 100 µM; in the test on LOX IMVI melanoma it was > 100 µM; in the test with DU-145 prostate it was > 100 µM; in the test with MDA-MB-435 it was > 100 µM. The TGI in the test with HOP-62 NSCLC, in the test on ACHN renal, in the test with CCRF-CEM leukemia and with MDA-MB-231 breast was > 100 µM throughout.

`COc1cc(/C=C/[N+](=O)[O-])cc(OC)c1OC`: the GI50 is 4.95 µM with HL-60(TB) leukemia; 4.42 µM with A549 NSCLC; 1.71 µM in the test with SW-620 colon; 1.39 µM with LOX IMVI melanoma; 2.69 µM in the test on DU-145 prostate; 2.8 µM in the test on MDA-MB-435. For the same molecule, the GI50 was 3.34 µM with HOP-62 NSCLC, 1.83 µM with ACHN renal, 3.35 µM in the test on CCRF-CEM leukemia and 1.87 µM with MDA-MB-231 breast. The TGI in the test on HL-60(TB) leukemia came out at 55.9 µM; in the test with A549 NSCLC, 19.4 µM; with SW-620 colon, 4.16 µM; in the test with LOX IMVI melanoma, 2.91 µM; in the test on DU-145 prostate it was 6.31 µM; in the test on MDA-MB-435, 10.2 µM. Besides, the TGI was found to be 13.6 µM with HOP-62 NSCLC, 3.46 µM in the test on ACHN renal, 15.4 µM in the test with CCRF-CEM leukemia and 4.86 µM in the test with MDA-MB-231 breast.

As to `COc1cccc(C2C(C#N)=C(N)Oc3c2ccc2ccccc32)c1` (centres undefined), the GI50 with HL-60(TB) leukemia is 0.0244 µM; with A549 NSCLC it was 0.0232 µM; in the test on SW-620 colon, < 0.015 µM; with LOX IMVI melanoma it was < 0.0164 µM; in the test with DU-145 prostate it was 0.034 µM; in the test with MDA-MB-435, < 0.01 µM. Moreover, the GI50 in the test on HOP-62 NSCLC is 0.0203 µM; in the test on ACHN renal, < 0.01 µM; in the test with CCRF-CEM leukemia, 0.0353 µM; with MDA-MB-231 breast it was 0.0433 µM. For the same molecule, the TGI worked out at 0.0629 µM with HL-60(TB) leukemia; 17.6 µM in the test with A549 NSCLC; 17.8 µM in the test with SW-620 colon; 10.8 µM in the test with LOX IMVI melanoma; 1.43 µM in the test on DU-145 prostate; 16.2 µM in the test on HOP-62 NSCLC. Moreover, the TGI with ACHN renal was 13.4 µM; with CCRF-CEM leukemia, 18.2 µM; in the test with MDA-MB-231 breast, 16.3 µM.

Take `O=c1c(O)cccn1CCCN(CCCn1cccc(O)c1=O)CCn1cccc(O)c1=O`: the GI50 with HL-60(TB) leukemia is 5.54 µM; in the test with A549 NSCLC it was 4.03 µM; with SW-620 colon, 9.02 µM; with LOX IMVI melanoma, 2.13 µM; with DU-145 prostate, 20.1 µM; in the test on MDA-MB-435, 3.46 µM. Further, the GI50 is 4.35 µM in the test with HOP-62 NSCLC, 7.15 µM in the test with ACHN renal, 0.386 µM with CCRF-CEM leukemia and 8.28 µM in the test with MDA-MB-231 breast. Besides, the TGI in the test on HL-60(TB) leukemia is 55.3 µM; with A549 NSCLC, 75.2 µM; in the test with SW-620 colon, > 100 µM; in the test with LOX IMVI melanoma it was > 100 µM; in the test with DU-145 prostate it was > 100 µM; with MDA-MB-435 it was > 100 µM. Besides, the TGI was > 100 µM in the test on HOP-62 NSCLC, > 100 µM with ACHN renal, 3.79 µM in the test on CCRF-CEM leukemia and > 100 µM with MDA-MB-231 breast.

On to `O=C1CCC(N2C(=O)c3cccc(NCCCC4CCN(CCNC(=O)c5cc6c(o5)C(=O)c5ccccc5C6=O)CC4)c3C2=O)C(=O)N1` (centres undefined), for which the GI50 with HL-60(TB) leukemia is 0.858 µM; with A549 NSCLC it was 0.189 µM; with SW-620 colon, 0.45 µM; with LOX IMVI melanoma, 0.288 µM; in the test with DU-145 prostate, 0.185 µM; with MDA-MB-435, 0.182 µM. The GI50 is 1.44 µM with HOP-62 NSCLC, 1.29 µM in the test with ACHN renal, 2.27 µM in the test on CCRF-CEM leukemia and 0.67 µM in the test on MDA-MB-231 breast. For the same molecule, the TGI in the test with HL-60(TB) leukemia was 6.16 µM; with A549 NSCLC, 0.471 µM; with SW-620 colon, 1.86 µM; with LOX IMVI melanoma it was 1.13 µM; in the test on DU-145 prostate, 0.344 µM; in the test with MDA-MB-435 it was 0.335 µM. Further, the TGI was 2.86 µM in the test with HOP-62 NSCLC, 2.56 µM with ACHN renal, > 71.6 µM with CCRF-CEM leukemia and 6.83 µM in the test on MDA-MB-231 breast.

On to `NCCC(=O)NC(Cc1cnc[nH]1)C(=O)O` (centres undefined), for which the TGI with HL-60(TB) leukemia, in the test on A549 NSCLC, in the test with SW-620 colon, in the test on LOX IMVI melanoma, with DU-145 prostate and with MDA-MB-435 was > 100 µM throughout. Further, the TGI in the test with HOP-62 NSCLC, with ACHN renal, with CCRF-CEM leukemia and in the test on MDA-MB-231 breast was > 100 µM each time.
